Laboratory results reported in article PMC10857906, “PROTAC-mediated NR4A1 degradation as a novel strategy for cancer immunotherapy” (The Journal of Experimental Medicine, 2024).

Experiments:
MC38 tumors = test: MC38 colon cancer syngeneic tumor model; format: in vivo, mouse
Description: 7–9-wk-old C57BL/6J, B6.129S2-Ighm^tm1Cgn/J (002288), B6.129S2-Nr4a1^tm1Jmi/J (NR4A1^−/−, 006187), and NOD-SCID interleukin-2 receptor gamma null (NSG) mice were purchased from Jackson Laboratories. For all studies involving NR-V04 and celastrol, the compounds were formulated in 50% phosal PG, 45% miglyol 810N, and 5% polysorbate 80 and administered via i.p. injection.
(§1) For syngeneic tumor models, 5 × 10^5 cells MC38, Yumm1.7, and Yummer1.7, 1 × 10^5 cells of B16F10 were resuspended in PBS and implanted into 7–9-wk-old mice subcutaneously. For the tumor inhibition experiment, mice were treated with 1.8 mg/kg NR-V04 or 0.75 mg/kg celastrol by i.p. injection twice weekly. For the immune profile experiment, once tumors reached 0.5 cm in diameter, mice were treated with 1.8 mg/kg NR-V04 by i.p. injection twice weekly. For the toxicity experiment, male and female non-tumor-bearing mice were treated with 2 mg/kg NR-V04 for two doses in the first week and 5 mg/kg for another two doses in the second week. Blood samples were taken from the submandibular (facial) vein before each treatment and 42 days later for hematological analysis, and body weight was measured twice per week up to day 42. Mice were euthanized in accordance with the IACUC protocol once the largest tumors reached 2 cm in diameter, and tissues were collected for further analysis.

[1] = tested on: immune cells in the TME, spleen and blood; test: Immune profile by flow cytometry in B16F10 tumor-bearing mice; format: in vivo, mouse
Protocol: as §1
Mouse tumors were excised and ∼200 mg of tumor tissue was enzymatically and mechanically digested using the mouse Tumor Dissociation Kit (Miltenyi Biotec) to obtain a single-cell suspension. Human tumor samples and sections were enzymatically and mechanically digested using the human Tumor Dissociation Kit (Miltenyi Biotec) to obtain single-cell suspension. Red blood cells were lysed using ACK lysis buffer and mononuclear cells were isolated by density gradient using SepMate Tubes (StemCell Technologies) and Lymphoprep density gradient media (StemCell Technologies). Mouse cells were then washed and incubated with combinations of the following antibodies: anti-mouse CD62L-BV785 (clone MEL-14), anti-mouse MHCII I-A/I-E-BB515 (Clone 2G9, 1:400; BD Biosciences), anti-mouse CD11B-PEdazzle 594 (clone M1/70, 1:200), anti-mouse CD45-AF532 (clone 30F.11), anti-mouse CD3-APC/Cy7 (clone 17A2), anti-mouse CD8-BV510 (clone 53-6.7), anti-mouse CD4-BV605 (clone GK1.5), anti-mouse NK1.1-AF700 (clone PK136), anti-mouse/human CD45R/B220-BV 570 (clone RA3-6B2), anti-mouse CD138-BV711 (clone 281-2), […], anti-mouse IgD-PE-Cy7 (clone 11-26c.2a), anti-mouse Ly6G-FITC (clone IA8), anti-mouse Ly6C-BV711 (clone HK1.4), anti-mouse CD38-PerCP/Cy 5.5 (clone 90) anti-mouse IgM-AF488 (clone RMM-1), anti-mouse CD25-PE-Cy5 (clone PC61) plus zombie red (cell viability; Thermo Fisher Scientific), and mouse FcR blocker (anti-mouse CD16/CD32, clone 2.4G2; BD Biosciences). After surface staining, cells were fixed and permeabilized using the FOXP3/Transcription Factor Staining Buffer Set (eBioscience). Cells were stained with a combination of the following antibodies: anti-mouse FOXP3-efluor 450 (clone FJK-16S, 1:50; eBioscience), anti-mouse Granzyme B-BV421 (clone GB11), and anti-mouse NR4A1-PE (clone 12.14; eBioscience). Human cells were stained with a combination of the following antibodies: anti-human CD45-BV510 (clone H130), anti-human CD3-AF700 (clone HIT5a), anti-human CD4-BV421 (clone OKT4), anti-human CD8-BV711 (clone RPA-T8), anti-human CD127-BV605 (clone A019DS), anti-human CD25-PE-Cy7 (clone MA251) plus FVD-eFluor-780 (eBioscience), and human FcR blocking reagent (StemCell Technologies). Cells were washed then fixed and permeabilized using the eBioscience FOXP3/Transcription Factor Staining Buffer Set. […] Flow cytometry was performed on a three laser Cytek Aurora Cytometer (Cytek Biosciences) and analyzed using FlowJo software (BD Biosciences). […]

NR4A1 mRNA = NR4A1 mRNA by qPCR in CHL-1 cells; format: cell-based, human; details: 500 nM, ACTB as control
Protocol: Total RNA was extracted from cells using RNeasy Kits (74004; QIAGEN) following the manufacturer’s instructions. cDNA synthesis was performed using SuperScript III Reverse Transcriptase (18080044; Thermo Fisher Scientific) with 100 ng RNA as the template. Amplification of cDNA was carried out using 2× PowerUP SYBR Green Master Mix (A25778; Thermo Fisher Scientific). Each reaction was conducted in triplicates and results were normalized to the expression of a housekeeping gene. Primer (Eurofins): human β-actin (forward sequence: 5′-CACCATTGGCAATGAGCGGTTC-3′; reverse sequence: 5′-AGGTCTTTGCGGATGTCCACGT-3′) and human NR4A1 (forward sequence: 5′-GGACAACGCTTCATGCCAGCAT-3′; reverse sequence: 5′-CCTTGTTAGCCAGGCAGATGTAC-3′).

human CD8^+ Texh cells = test: T cell exhaustion in vitro, human PBMC-derived T cells; format: cell-based; details: 500 nM, 48 h
Protocol: We conducted experiments involving the isolations and treatments of CD8^+ T cells from both OT-1 mice (C57BL/6-Tg(TcraTcrb)1100Mjb/J; Jackson Laboratories) and T cells from human PBMCs. CD8^+ T cells were isolated from OT-1 mice using the EasySep Mouse CD8 T Cell Isolation Kit, followed by daily treatment with 10 ng/ml ovalbumin (257–264) (S7951-1MG; Sigma-Aldrich) for specified durations. After 3 days of ovalbumin treatment, OT-1 CD8^+ T cells were activated, and after 7 days of treatment, they reached a state of exhaustion. Human T cells were isolated from PBMCs using the EasySep Human CD3 Positive Selection Kit II (17851; STEMCELL) and cultured with Dynabeads (Cell/Dynabeads: 1:1, A56992; Thermo Fisher Scientific) for 3 days to induce activation and for 7 days to induce exhaustion. Both mouse and human T cells received a treatment of 500 nM NR-V04 2 days prior to harvesting. To characterize the T cell subtypes, we employed specific flow cytometry antibodies and conducted flow cytometry analysis.
Mouse tumors were excised and ∼200 mg of tumor tissue was enzymatically and mechanically digested using the mouse Tumor Dissociation Kit (Miltenyi Biotec) to obtain a single-cell suspension. […] Flow cytometry was performed on a three laser Cytek Aurora Cytometer (Cytek Biosciences) and analyzed using FlowJo software (BD Biosciences). […]

CC1=C(O)C(=O)C=C2C1=CC=C1[C@@]2(C)CC[C@@]2(C)[C@@H]3C[C@](C)(C(=O)NCCOCCOCCOCCOCC(=O)N[C@H](C(=O)N4C[C@H](O)C[C@H]4C(=O)N[C@@H](C)c4ccc(-c5scnc5C)cc4)C(C)(C)C)CC[C@]3(C)CC[C@]12C [NR-V04]
tumor growth (MC38 tumors; MC38 in NSG mice, 1.8 mg/kg i.p.): failed to inhibit tumor growth
tumor growth (MC38 tumors; MC38 in WT mice, 1.8 mg/kg NR-V04 or 0.75 mg/kg celastrol i.p. twice a week from day 7): effectively inhibited tumor growth
CD8^+ Texh cells in vivo (MC38 tumors; MC38 tumors): did not observe a significant decrease in CD8^+ Texh cells
B cells in the spleen and blood ([1]; B16F10 model, 2 doses of 1.8 mg/kg i.p.): no significant change
CD8^+ Texh cells in vivo ([1]; B16F10 tumors): did not observe a significant decrease in CD8^+ Texh cells
TI-B cells (B220^+ cells) ([1]; B16F10 tumors, 2 doses of 1.8 mg/kg i.p. on day 1 and day 4, collected day 7, vehicle 14.7%): 30.1%
effector memory CD8 T cells (CD44^+CD62L^− Tem) ([1]; spleen and tumors, B16F10 model, 2 doses of 1.8 mg/kg i.p.): increase in effector memory CD8 T cells
monocytic myeloid-derived suppressor cells (m-MDSC, CD11B^+Ly6C^+) ([1]; tumors and blood, B16F10 model, 2 doses of 1.8 mg/kg i.p.): decrease in monocytic myeloid-derived suppressor cells
NR4A1 mRNA level (NR4A1 mRNA): increased NR4A1 mRNA after 4 h
CD8^+ Texh cells (CD8^+CTLA-4^+Tim3^+) (human CD8^+ Texh cells): significant reduction in CD8^+ Texh cells
